Results taken from patent publication US10292945B2, “Dressings that contain active substance” (BEIERSDORF AG, priority 2011, dated 2019).

Experiment: Active substance release from acrylate adhesive matrix into pig skin by Franz's cells, HPLC determination
Type: in vitro ADME
Source text: The release of the active ingredients within the product is advantageously adjusted such that an effect can still be perceived even after a period of 2 days. The delayed effect of the active substances used is achieved here from combination of active substance content and auxiliaries. The release of the active substances can be controlled over a wide time range via the use of e.g. plasticizers and fillers. Examples of such systems are pain patches on the market that contain opiates such as fentanyl, which are applied over several days up to a week and ensure an absolutely uniform release of the active substance over the entire application time. For the determination of the release rate of vanillyl butyl ether (VBE) from e.g. acrylate compositions, it was incorporated into the adhesive compositions in an amount of 0.75% and the release was ascertained over the time in pig skin by means of Franz's cells. Determination of the released amounts into the full-thickness skin was then carried out by HPLC.
One possible measure to increase the active ingredient release is the use of solubilizers. […] For the two other additives, lower values were determined, meaning that decyl oleate (Cetiol V) in particular is a preferred solubilizer in the adhesive composition. […]

CCCCCCCC/C=C\CCCCCCCC(=O)OCCCCCCCCCC [Cetiol V, decyl oleate]
Effect of added solubilizer on released amount of VBE in pig skin: significant increase in the released amount of VBE
